Laboratory results published in PMC5218480 (PLoS ONE, 2017).

Test system: MV-4-11 cells
Experiment: Gene expression microarray analysis (Affymetrix PrimeView) and GSEA
Type: cell-based, human
Parameters: RFU PODN (11730768_x_at) / Fold change /veh PODN (11730768_x_at) / RFU LINC00158 (11744669_a_at) / Fold change /veh LINC00158 (11744669_a_at) / RFU DUSP10 (11751237_a_at) / Fold change /veh DUSP10 (11751237_a_at) / RFU ID3 (11757404_x_at) / Fold change /veh ID3 (11757404_x_at) / RFU PLEKHG5 (11737974_s_at) / Fold change /veh PLEKHG5 (11737974_s_at) / RFU LRRC4B (11730491_at) / Fold change /veh LRRC4B (11730491_at) / RFU GIMAP4 (11747438_a_at) / Fold change /veh GIMAP4 (11747438_a_at) / RFU KRT8 (11758183_x_at) / Fold change /veh KRT8 (11758183_x_at) / RFU CNN1 (11734310_a_at) / Fold change /veh CNN1 (11734310_a_at) / RFU VPS37D (11726825_at) / Fold change /veh VPS37D (11726825_at) / RFU C10orf10 (11716522_x_at) / Fold change /veh C10orf10 (11716522_x_at) / RFU KIR2DL2 /// KIR2DL4 /// KIR2DL5A /// KIR2DL5B /// KIR2DS1 /// KIR2DS2 /// KIR2DS3 /// KIR2DS4 /// KIR3DL3 /// KIR3DL3 /// KIR3DS1 (11738374_at) / Fold change /veh KIR2DL2 /// KIR2DL4 /// KIR2DL5A /// KIR2DL5B /// KIR2DS1 /// KIR2DS2 /// KIR2DS3 /// KIR2DS4 /// KIR3DL3 /// KIR3DL3 /// KIR3DS1 (11738374_at) / RFU C1QL1 (11718748_at) / Fold change /veh C1QL1 (11718748_at) / RFU TMPRSS4 (11747572_a_at) / Fold change /veh TMPRSS4 (11747572_a_at) / RFU HAMP (11756126_x_at) / Fold change /veh HAMP (11756126_x_at) / RFU RNFT2 (11725882_a_at) / Fold change /veh RNFT2 (11725882_a_at) / RFU NR4A2 (11747474_a_at) / Fold change /veh NR4A2 (11747474_a_at) / RFU ABCC12 (11746883_a_at) / Fold change /veh ABCC12 (11746883_a_at) / RFU TMEM136 (11760407_x_at) / Fold change /veh TMEM136 (11760407_x_at) / RFU CLDN22 /// WWC2 (11732394_at) / Fold change /veh CLDN22 /// WWC2 (11732394_at) / RFU HLA-DPB1 (11760878_x_at) / Fold change /veh HLA-DPB1 (11760878_x_at) / RFU SPINT1 (11716480_a_at) / Fold change /veh SPINT1 (11716480_a_at) / RFU GAP43 (11754022_s_at) / Fold change /veh GAP43 (11754022_s_at) / RFU A4GNT (11735810_at) / Fold change /veh A4GNT (11735810_at) / RFU PRB3 (11715151_x_at) / Fold change /veh PRB3 (11715151_x_at) / RFU TUBB4B (11761932_at) / Fold change /veh TUBB4B (11761932_at) / RFU CAPN14 (11732068_a_at) / Fold change /veh CAPN14 (11732068_a_at) / RFU TMCC2 (11721928_a_at) / Fold change /veh TMCC2 (11721928_a_at) / RFU IRGQ (11745062_a_at) / Fold change /veh IRGQ (11745062_a_at) / RFU FAM174B (11720279_a_at) / Fold change /veh FAM174B (11720279_a_at) / RFU TMPRSS4 (11748680_a_at) / Fold change /veh TMPRSS4 (11748680_a_at) / RFU FAM212B (11763350_a_at) / Fold change /veh FAM212B (11763350_a_at) / RFU PLEKHG5 (11743358_a_at) / Fold change /veh PLEKHG5 (11743358_a_at) / RFU ZSCAN30 (11745921_a_at) / Fold change /veh ZSCAN30 (11745921_a_at) / RFU CMKLR1 (11741424_a_at) / Fold change /veh CMKLR1 (11741424_a_at) / RFU LOC101060620 /// MAPK8IP1 (11723275_at) / Fold change /veh LOC101060620 /// MAPK8IP1 (11723275_at) / RFU SPTSSB (11747773_x_at) / Fold change /veh SPTSSB (11747773_x_at) / RFU PRSS12 (11739890_at) / Fold change /veh PRSS12 (11739890_at) / RFU BIN1 (11741810_x_at) / Fold change /veh BIN1 (11741810_x_at) / RFU WNT11 (11732464_a_at) / Fold change /veh WNT11 (11732464_a_at) / RFU C10orf10 (11716521_a_at) / Fold change /veh C10orf10 (11716521_a_at) / RFU C5orf56 (11738089_at) / Fold change /veh C5orf56 (11738089_at) / RFU CYB561 (11721691_x_at) / Fold change /veh CYB561 (11721691_x_at) / RFU ANKRD19P (11752326_a_at) / Fold change /veh ANKRD19P (11752326_a_at) / RFU OR2T12 /// OR2T33 /// OR2T8 (11738714_s_at) / Fold change /veh OR2T12 /// OR2T33 /// OR2T8 (11738714_s_at) / RFU VCAN (11748164_a_at) / Fold change /veh VCAN (11748164_a_at) / RFU JSRP1 (11732532_at) / Fold change /veh JSRP1 (11732532_at) / RFU KRTAP10-11 (11738290_x_at) / Fold change /veh KRTAP10-11 (11738290_x_at) / RFU MYO3A (11730013_a_at) / Fold change /veh MYO3A (11730013_a_at) / RFU EBF3 (11725865_a_at) / Fold change /veh EBF3 (11725865_a_at) / RFU CAMK2N1 (11719241_x_at) / Fold change /veh CAMK2N1 (11719241_x_at) / RFU C5orf56 (11738088_a_at) / Fold change /veh C5orf56 (11738088_a_at) / RFU OLFML3 (11715873_a_at) / Fold change /veh OLFML3 (11715873_a_at) / RFU LOC100653217 /// NTM (11731650_a_at) / Fold change /veh LOC100653217 /// NTM (11731650_a_at) / RFU MAPK11 (11762145_a_at) / Fold change /veh MAPK11 (11762145_a_at) / RFU FIZ1 (11724087_x_at) / Fold change /veh FIZ1 (11724087_x_at) / RFU OASL (11726364_x_at) / Fold change /veh OASL (11726364_x_at) / RFU SOX15 (11748057_x_at) / Fold change /veh SOX15 (11748057_x_at) / RFU CD79A (11719716_a_at) / Fold change /veh CD79A (11719716_a_at) / RFU HIST1H1D (11736915_at) / Fold change /veh HIST1H1D (11736915_at) / RFU CASKIN2 (11723855_a_at) / Fold change /veh CASKIN2 (11723855_a_at) / RFU LOC730098 (11760151_x_at) / Fold change /veh LOC730098 (11760151_x_at) / RFU OR4N2 (11742367_at) / Fold change /veh OR4N2 (11742367_at) / RFU PRRT2 (11749266_a_at) / Fold change /veh PRRT2 (11749266_a_at) / RFU SNX32 (11753110_a_at) / Fold change /veh SNX32 (11753110_a_at) / RFU CDHR5 (11726645_a_at) / Fold change /veh CDHR5 (11726645_a_at) / RFU RCAN1 (11760418_a_at) / Fold change /veh RCAN1 (11760418_a_at) / RFU FAM167A (11723789_a_at) / Fold change /veh FAM167A (11723789_a_at) / RFU FAM26E (11764081_at) / Fold change /veh FAM26E (11764081_at) / RFU ISYNA1 (11749810_s_at) / Fold change /veh ISYNA1 (11749810_s_at) / RFU ACY1 (11761880_at) / Fold change /veh ACY1 (11761880_at) / RFU 11764098_at / Fold change /veh 11764098_at / RFU SAMD14 (11745864_x_at) / Fold change /veh SAMD14 (11745864_x_at) / RFU NPB (11741838_a_at) / Fold change /veh NPB (11741838_a_at) / RFU TMPRSS6 (11731388_a_at) / Fold change /veh TMPRSS6 (11731388_a_at) / RFU KRTAP10-2 (11738614_at) / Fold change /veh KRTAP10-2 (11738614_at) / RFU ARHGAP8 /// PRR5-ARHGAP8 (11727945_x_at) / Fold change /veh ARHGAP8 /// PRR5-ARHGAP8 (11727945_x_at) / RFU KRTAP5-7 /// NADSYN1 (11734609_at) / Fold change /veh KRTAP5-7 /// NADSYN1 (11734609_at) / RFU RASL12 (11751679_a_at) / Fold change /veh RASL12 (11751679_a_at) / RFU CDKN2B (11736163_a_at) / Fold change /veh CDKN2B (11736163_a_at) / RFU PRF1 (11729649_at) / Fold change /veh PRF1 (11729649_at) / RFU, ZNF638 /// ZNF638-IT1 / Fold change vs veh, ZNF638 /// ZNF638-IT1 / RFU, PANK3 / Fold change vs veh, PANK3 / RFU, SH3YL1 / Fold change vs veh, SH3YL1 / RFU, ZEB2 / Fold change vs veh, ZEB2 / RFU, NRIP1 / Fold change vs veh, NRIP1 / RFU, PTTG1IP / Fold change vs veh, PTTG1IP / RFU, CAPN2 / Fold change vs veh, CAPN2 / RFU, MED14 / Fold change vs veh, MED14 / RFU, SNORA58 / Fold change vs veh, SNORA58 / RFU, C1orf63 / Fold change vs veh, C1orf63 / RFU, LRRFIP1 / Fold change vs veh, LRRFIP1 / RFU, NDUFAF7 / Fold change vs veh, NDUFAF7 / RFU, SLC12A2 / Fold change vs veh, SLC12A2 / RFU, IBTK / Fold change vs veh, IBTK / RFU, ESF1 / Fold change vs veh, ESF1 / Fold change vs veh, TMEM50B / RFU, TAOK1 / Fold change vs veh, TAOK1 / RFU, ACBD3 / Fold change vs veh, ACBD3 / RFU, TMA16 / Fold change vs veh, TMA16 / RFU, RWDD3 / Fold change vs veh, RWDD3 / RFU, BCAT1 / Fold change vs veh, BCAT1 / RFU, EDEM3 / Fold change vs veh, EDEM3 / RFU, TMEM33 / Fold change vs veh, TMEM33 / RFU, WDR75 / Fold change vs veh, WDR75 / RFU, AHCTF1 / Fold change vs veh, AHCTF1 / RFU, TFRC / Fold change vs veh, TFRC / RFU, ZDHHC17 / Fold change vs veh, ZDHHC17 / RFU, NOM1 / Fold change vs veh, NOM1 / RFU, ARL8B / Fold change vs veh, ARL8B / RFU, ZBTB11 / Fold change vs veh, ZBTB11 / RFU, TAMM41 / Fold change vs veh, TAMM41 / RFU, KIAA1704 /// LOC100996395 / Fold change vs veh, KIAA1704 /// LOC100996395 / RFU, ING1 / Fold change vs veh, ING1 / RFU, TRMT61B / Fold change vs veh, TRMT61B / RFU, FUBP3 / Fold change vs veh, FUBP3 / RFU, TP53 / Fold change vs veh, TP53 / RFU, TNKS2 / Fold change vs veh, TNKS2 / RFU, ZFP14 / Fold change vs veh, ZFP14 / RFU, ACTR2 / Fold change vs veh, ACTR2 / RFU, PPP3R1 / Fold change vs veh, PPP3R1 / RFU, PIK3R1 / Fold change vs veh, PIK3R1 / RFU, HNRNPA1 / Fold change vs veh, HNRNPA1 / RFU, RNF170 / Fold change vs veh, RNF170 / RFU, ZNF28 / Fold change vs veh, ZNF28 / RFU, RNGTT / Fold change vs veh, RNGTT / RFU, OGT / Fold change vs veh, OGT / RFU, BRD1 / Fold change vs veh, BRD1 / RFU, MARS / Fold change vs veh, MARS / RFU, ZNF655 / Fold change vs veh, ZNF655 / RFU, FAHD1 / Fold change vs veh, FAHD1 / RFU, BDP1 / Fold change vs veh, BDP1 / RFU, LRRCC1 / Fold change vs veh, LRRCC1 / RFU, ARID1A / Fold change vs veh, ARID1A / RFU, ZNF146 / Fold change vs veh, ZNF146 / RFU, ZNF330 / Fold change vs veh, ZNF330 / RFU, GPN3 / Fold change vs veh, GPN3 / RFU, C9orf123 / Fold change vs veh, C9orf123 / RFU, N4BP2L2 / Fold change vs veh, N4BP2L2 / RFU, ARFIP1 / Fold change vs veh, ARFIP1 / RFU, FAM179B / Fold change vs veh, FAM179B / RFU, BCL10 / Fold change vs veh, BCL10 / RFU, UHRF1BP1L / Fold change vs veh, UHRF1BP1L / RFU, BET1 / Fold change vs veh, BET1 / RFU, CNOT2 / Fold change vs veh, CNOT2 / RFU, ZNF268 / Fold change vs veh, ZNF268 / Fold change vs veh, ZNF507 / RFU, DGCR2 / Fold change vs veh, DGCR2 / RFU, WDSUB1 / Fold change vs veh, WDSUB1 / Fold change vs veh, HSP90B1 /// MIR3652 / RFU, ADSS / Fold change vs veh, ADSS / RFU, GK / Fold change vs veh, GK / RFU, ZNF148 / Fold change vs veh, ZNF148 / RFU, TAF9 / Fold change vs veh, TAF9 / RFU, SLC1A5 / Fold change vs veh, SLC1A5 / RFU, SLMO2 / Fold change vs veh, SLMO2 / RFU, ABCC4 / Fold change vs veh, ABCC4 / RFU, LOC101060439 /// RAP1B / Fold change vs veh, LOC101060439 /// RAP1B / RFU, RFX7 / Fold change vs veh, RFX7 / RFU, GTPBP10 / Fold change vs veh, GTPBP10 / RFU, CNEP1R1 / Fold change vs veh, CNEP1R1 / RFU, BIVM-ERCC5 /// ERCC5 / Fold change vs veh, BIVM-ERCC5 /// ERCC5 / RFU, ILF3 / Fold change vs veh, ILF3 / RFU 11762660_at / Fold change /veh 11762660_at / RFU VCAN (11757783_s_at) / Fold change /veh VCAN (11757783_s_at) / RFU DDX43 (11728927_at) / Fold change /veh DDX43 (11728927_at) / RFU KRT8 (11758188_x_at) / Fold change /veh KRT8 (11758188_x_at) / RFU NKD1 (11759106_at) / Fold change /veh NKD1 (11759106_at) / RFU SRD5A1 (11742802_a_at) / Fold change /veh SRD5A1 (11742802_a_at) / RFU TPSAB1 /// TPSB2 (11721975_s_at) / Fold change /veh TPSAB1 /// TPSB2 (11721975_s_at) / RFU GSTM3 (11746129_a_at) / Fold change /veh GSTM3 (11746129_a_at) / RFU IL23R (11737362_x_at) / Fold change /veh IL23R (11737362_x_at) / RFU TMEM51 (11727254_a_at) / Fold change /veh TMEM51 (11727254_a_at) / RFU PIWIL2 (11732686_x_at) / Fold change /veh PIWIL2 (11732686_x_at) / RFU ORM1 (11744905_x_at) / Fold change /veh ORM1 (11744905_x_at) / RFU CCDC152 (11743942_at) / Fold change /veh CCDC152 (11743942_at) / RFU ECM1 (11717891_a_at) / Fold change /veh ECM1 (11717891_a_at) / RFU IL23R (11748794_a_at) / Fold change /veh IL23R (11748794_a_at) / RFU TNFAIP8L3 (11732012_x_at) / Fold change /veh TNFAIP8L3 (11732012_x_at) / RFU MBOAT4 (11741988_at) / Fold change /veh MBOAT4 (11741988_at) / RFU 11764193_at / Fold change /veh 11764193_at / RFU TMEM53 (11763286_at) / Fold change /veh TMEM53 (11763286_at) / RFU MAGEB2 (11727129_at) / Fold change /veh MAGEB2 (11727129_at) / RFU TMEM200A (11744735_a_at) / Fold change /veh TMEM200A (11744735_a_at) / RFU CCDC152 (11751479_a_at) / Fold change /veh CCDC152 (11751479_a_at) / RFU FAM211A (11726209_a_at) / Fold change /veh FAM211A (11726209_a_at) / RFU RGS16 (11746705_a_at) / Fold change /veh RGS16 (11746705_a_at) / RFU VCAN (11755009_s_at) / Fold change /veh VCAN (11755009_s_at) / RFU RHOB (11743442_s_at) / Fold change /veh RHOB (11743442_s_at) / RFU RGS16 (11720943_a_at) / Fold change /veh RGS16 (11720943_a_at) / RFU RGS16 (11720944_at) / Fold change /veh RGS16 (11720944_at) / RFU, VPS4B / Fold change vs veh, VPS4B / RFU, CREB1 / Fold change vs veh, CREB1 / RFU, DNAJC13 / Fold change vs veh, DNAJC13 / RFU, GNAQ / Fold change vs veh, GNAQ / RFU, CDK5R1 / Fold change vs veh, CDK5R1 / RFU, ZRANB3 / Fold change vs veh, ZRANB3 / RFU, CUL4A / Fold change vs veh, CUL4A / RFU, CCNY / Fold change vs veh, CCNY / RFU, UFL1 / Fold change vs veh, UFL1 / RFU, COG3 / Fold change vs veh, COG3 / RFU, DIAPH2 / Fold change vs veh, DIAPH2 / RFU, SKA2 / Fold change vs veh, SKA2 / RFU, AFF3 / Fold change vs veh, AFF3 / RFU, LMF1 / Fold change vs veh, LMF1 / RFU, IPO11 / Fold change vs veh, IPO11 / RFU, DFFB / Fold change vs veh, DFFB / RFU, FOXP1 / Fold change vs veh, FOXP1 / RFU, CARD8 / Fold change vs veh, CARD8 / RFU, STRN3 / Fold change vs veh, STRN3 / RFU, ADK / Fold change vs veh, ADK / RFU, RASSF2 / Fold change vs veh, RASSF2 / RFU, WIPF1 / Fold change vs veh, WIPF1 / RFU, LARP1B / Fold change vs veh, LARP1B / RFU, RASA1 / Fold change vs veh, RASA1 / RFU, RB1 / Fold change vs veh, RB1 / RFU, PPFIA1 / Fold change vs veh, PPFIA1 / RFU, MAT2A / Fold change vs veh, MAT2A / RFU, CCT5 / Fold change vs veh, CCT5 / RFU, WDR92 / Fold change vs veh, WDR92 / RFU, CUX1 / Fold change vs veh, CUX1 / RFU, TTC7A / Fold change vs veh, TTC7A / RFU, TMEM135 / Fold change vs veh, TMEM135 / RFU, DEPTOR / Fold change vs veh, DEPTOR / RFU, CPM / Fold change vs veh, CPM / RFU, DNAJB6 / Fold change vs veh, DNAJB6 / RFU, CACNA2D3 / Fold change vs veh, CACNA2D3 / RFU, DTX4 / Fold change vs veh, DTX4 / RFU, TFCP2 / Fold change vs veh, TFCP2 / RFU, GMCL1 /// GMCL1P1 / Fold change vs veh, GMCL1 /// GMCL1P1 / RFU, AEBP2 / Fold change vs veh, AEBP2 / RFU, SNHG1 /// SNORD22 /// SNORD25 /// SNORD26 /// SNORD27 /// SNORD28 /// SNORD29 /// SNORD31 / Fold change vs veh, SNHG1 /// SNORD22 /// SNORD25 /// SNORD26 /// SNORD27 /// SNORD28 /// SNORD29 /// SNORD31 / Fold change (Aza/veh), C12orf56 (ProbeSet 11735607_a_at) / Fold change (ACY-1035/veh), C12orf56 (ProbeSet 11735607_a_at) / Fold change (Aza/veh), FGFR1OP (ProbeSet 11751329_s_at) / Fold change (ACY-1035/veh), FGFR1OP (ProbeSet 11751329_s_at) / Fold change (Aza/veh), VPS36 (ProbeSet 11739960_a_at) / Fold change (ACY-1035/veh), VPS36 (ProbeSet 11739960_a_at) / RFU SYPL1 (11715823_x_at) / Fold change /veh SYPL1 (11715823_x_at) / RFU IGFBP7 (11715501_s_at) / Fold change /veh IGFBP7 (11715501_s_at) / RFU REEP3 (11722064_at) / Fold change /veh REEP3 (11722064_at) / RFU IGLL1 (11728026_x_at) / Fold change /veh IGLL1 (11728026_x_at): dose or concentration left out as unconfirmed
Conditions: ProbeSet 11716844_s_at; LIST D

Compound: Nc1ncn([C@@H]2O[C@H](CO)[C@@H](O)[C@H]2O)c(=O)n1 [azacitidine]
- RFU, DNAJC13: 111.36 RFU
